Results: the NIST ThermoML archive (doi:10.1007/s10765-013-1487-y)
Several values for one entry are separate records, joined by “and”; a condition that tells them apart may be missing. Equal entries are not always repeated. Numbers after ± are expanded uncertainties.

Conditions: 101.33 kPa, Liquid; for mass density: Vibrating tube method

CCCCCC[n+]1ccn(C)c1.O=S(=O)([N-]S(=O)(=O)C(F)(F)F)C(F)(F)F
viscosity (293.25 K, Capillary tube (Ostwald / Ubbelohde) method): 89.98 ± 2.6 mPa·s | viscosity (298.19 K, Capillary tube (Ostwald / Ubbelohde) method): 71.11 ± 2.1 mPa·s

CCOS(=O)(=O)[O-].CCn1cc[n+](C)c1 [1-ethyl-3-methylimidazolium ethyl sulfate]
mass density (290.65 K): 1243.24 ± 0.56 kg/m3 | mass density (290.66 K): 1243.24 ± 0.56 kg/m3 | viscosity (293.14 K, Vibrating wire viscometry): 125.7 ± 3.3 mPa·s | mass density (293.15 K): 1241.55 ± 0.56 kg/m3 | mass density (293.16 K): 1241.54 ± 0.56 kg/m3 | viscosity (293.23 K, Capillary tube (Ostwald / Ubbelohde) method): 128.62 ± 3.5 mPa·s | mass density (295.65 K): 1239.85 ± 0.56 kg/m3 | mass density (298.15 K): 1238.14 ± 0.55 kg/m3 and 1238.15 ± 0.55 kg/m3 | mass density (298.16 K): 1238.15 ± 0.55 kg/m3 | viscosity (298.18 K, Capillary tube (Ostwald / Ubbelohde) method): 99.37 ± 2.6 mPa·s | viscosity (298.19 K, Vibrating wire viscometry): 97.19 ± 2.4 mPa·s | mass density (300.65 K): 1236.44 ± 0.55 kg/m3 and 1236.46 ± 0.55 kg/m3 | mass density (300.66 K): 1236.45 ± 0.55 kg/m3 | mass density (303.15 K): 1234.75 ± 0.55 kg/m3 and 1234.76 ± 0.55 kg/m3 | viscosity (303.15 K, Vibrating wire viscometry): 76.8 ± 1.8 mPa·s | mass density (305.64 K): 1233.06 ± 0.55 kg/m3 | mass density (305.65 K): 1233.06 ± 0.55 kg/m3 | mass density (305.66 K): 1233.06 ± 0.55 kg/m3 | mass density (308.14 K): 1231.37 ± 0.55 kg/m3 | mass density (308.15 K): 1231.37 ± 0.55 kg/m3 | mass density (308.16 K): 1231.37 ± 0.55 kg/m3 | viscosity (308.21 K, Vibrating wire viscometry): 61.42 ± 1.4 mPa·s | mass density (310.64 K): 1229.68 ± 0.55 kg/m3 and 1229.69 ± 0.55 kg/m3 | mass density (310.66 K): 1229.68 ± 0.55 kg/m3 | viscosity (313.14 K, Vibrating wire viscometry): 50.05 ± 1.1 mPa·s | mass density (313.15 K): 1228 ± 0.54 kg/m3 | mass density (315.64 K): 1226.32 ± 0.54 kg/m3 | mass density (315.66 K): 1226.31 ± 0.54 kg/m3 | viscosity (318.13 K, Vibrating wire viscometry): 41.42 ± 0.93 mPa·s | mass density (318.15 K): 1224.63 ± 0.54 kg/m3 and 1224.64 ± 0.54 kg/m3 | mass density (320.65 K): 1222.96 ± 0.54 kg/m3

CCOS(=O)(=O)[O-].CC[n+]1cccc(C)c1 [1-ethyl-3-methylpyridinium ethylsulfate]
viscosity (293.16 K, Capillary tube (Ostwald / Ubbelohde) method): 182.68 ± 5.6 mPa·s | viscosity (298.13 K, Capillary tube (Ostwald / Ubbelohde) method): 135.35 ± 4 mPa·s
